Measured values published in ChEMBL document CHEMBL2396621, “Design, synthesis and biological evaluation of 2-mercapto-3-phenethylquinazoline bearing anilide fragments as potential antitumor agents: molecular docking study” (2013).

Assays:
Format in all cases: functional
NCI-H322M = assay: Cytotoxicity against human NCI-H322M cells assessed as growth inhibition at 10 uM after 48 hrs by coulter counter analysis; details: read-out: GI
NCI-H226 = assay: Cytotoxicity against human NCI-H226 cells assessed as growth inhibition at 10 uM after 48 hrs by coulter counter analysis; details: NCI-H226, 48 h, read-out: GI
[1] = Cytotoxicity against human EKVX cells assessed as growth inhibition at 10 uM after 48 hrs by coulter counter analysis; details: read-out: GI
A549 = assay: Cytotoxicity against human A549 cells assessed as growth inhibition at 10 uM after 48 hrs by coulter counter analysis; details: A549, 48 h, read-out: GI
MDA-MB-468 = assay: Cytotoxicity against human MDA-MB-468 cells assessed as growth inhibition at 10 uM after 48 hrs by coulter counter analysis; details: MDA-MB-468, 48 h, read-out: GI
T47D = assay: Cytotoxicity against human T47D cells assessed as growth inhibition at 10 uM after 48 hrs by coulter counter analysis; details: read-out: GI
MCF7 = assay: Cytotoxicity against human MCF7 cells assessed as growth inhibition at 10 uM after 48 hrs by coulter counter analysis; details: MCF7, 48 h, read-out: GI
PC-3 = assay: Cytotoxicity against human PC3 cells assessed as growth inhibition at 10 uM after 48 hrs by coulter counter analysis; details: PC-3, 48 h, read-out: GI
UO-31 = assay: Cytotoxicity against human UO31 cells assessed as growth inhibition at 10 uM after 48 hrs by coulter counter analysis; details: UO-31, 48 h, read-out: GI
TK-10 = assay: Cytotoxicity against human TK10 cells assessed as growth inhibition at 10 uM after 48 hrs by coulter counter analysis; details: TK-10, 48 h, read-out: GI
SN12C = assay: Cytotoxicity against human SN12C cells assessed as growth inhibition at 10 uM after 48 hrs by coulter counter analysis; details: read-out: GI
RXF 393 = assay: Cytotoxicity against human RXF393 cells assessed as growth inhibition at 10 uM after 48 hrs by coulter counter analysis; details: RXF 393, 48 h, read-out: GI
CAKI-1 = assay: Cytotoxicity against human Caki1 cells assessed as growth inhibition at 10 uM after 48 hrs by coulter counter analysis; details: CAKI-1, 48 h, read-out: GI
A498 = assay: Cytotoxicity against human A498 cells assessed as growth inhibition at 10 uM after 48 hrs by coulter counter analysis; details: A498, 48 h, read-out: GI
SK-OV-3 = assay: Cytotoxicity against human SKOV3 cells assessed as growth inhibition at 10 uM after 48 hrs by coulter counter analysis; details: SK-OV-3, 48 h, read-out: GI
786-0 = assay: Cytotoxicity against human 786-0 cells assessed as growth inhibition at 10 uM after 48 hrs by coulter counter analysis; details: 786-0, 48 h, read-out: GI
[2] = Cytotoxicity against human NCI-ADR-RES cells assessed as growth inhibition at 10 uM after 48 hrs by coulter counter analysis; details: read-out: GI
OVCAR-8 = assay: Cytotoxicity against human OVCAR8 cells assessed as growth inhibition at 10 uM after 48 hrs by coulter counter analysis; details: OVCAR-8, 48 h, read-out: GI
OVCAR-5 = assay: Cytotoxicity against human OVCAR5 cells assessed as growth inhibition at 10 uM after 48 hrs by coulter counter analysis; details: OVCAR-5, 48 h, read-out: GI
OVCAR-4 = assay: Cytotoxicity against human OVCAR4 cells assessed as growth inhibition at 10 uM after 48 hrs by coulter counter analysis; details: OVCAR-4, 48 h, read-out: GI
IGROV-1 = assay: Cytotoxicity against human IGROV1 cells assessed as growth inhibition at 10 uM after 48 hrs by coulter counter analysis; details: IGROV-1, 48 h, read-out: GI
UACC-62 = assay: Cytotoxicity against human UACC62 cells assessed as growth inhibition at 10 uM after 48 hrs by coulter counter analysis; details: UACC-62, 48 h, read-out: GI
UACC-257 = assay: Cytotoxicity against human UACC257 cells assessed as growth inhibition at 10 uM after 48 hrs by coulter counter analysis; details: UACC-257, 48 h, read-out: GI
SK-MEL-28 = assay: Cytotoxicity against human SK-MEL-28 cells assessed as growth inhibition at 10 uM after 48 hrs by coulter counter analysis; details: SK-MEL-28, 48 h, read-out: GI
MDA-MB-435 = assay: Cytotoxicity against human MDA-MB-435 cells assessed as growth inhibition at 10 uM after 48 hrs by coulter counter analysis; details: MDA-MB-435, 48 h, read-out: GI
M14 = assay: Cytotoxicity against human M14 cells assessed as growth inhibition at 10 uM after 48 hrs by coulter counter analysis; details: M14, 48 h, read-out: GI
Malme-3M = assay: Cytotoxicity against human MALME-3M cells assessed as growth inhibition at 10 uM after 48 hrs by coulter counter analysis; details: read-out: GI
LOX IMVI = assay: Cytotoxicity against human LOXIMVI cells assessed as growth inhibition at 10 uM after 48 hrs by coulter counter analysis; details: read-out: GI
U-251 = assay: Cytotoxicity against human U251 cells assessed as growth inhibition at 10 uM after 48 hrs by coulter counter analysis; details: U-251, 48 h, read-out: GI
SNB-75 = assay: Cytotoxicity against human SNB75 cells assessed as growth inhibition at 10 uM after 48 hrs by coulter counter analysis; details: SNB-75, 48 h, read-out: GI
SNB-19 = assay: Cytotoxicity against human SNB19 cells assessed as growth inhibition at 10 uM after 48 hrs by coulter counter analysis; details: SNB-19, 48 h, read-out: GI
SF-295 = assay: Cytotoxicity against human SF295 cells assessed as growth inhibition at 10 uM after 48 hrs by coulter counter analysis; details: SF-295, 48 h, read-out: GI
SF-268 = assay: Cytotoxicity against human SF268 cells assessed as growth inhibition at 10 uM after 48 hrs by coulter counter analysis; details: SF-268, 48 h, read-out: GI
SW-620 = assay: Cytotoxicity against human SW620 cells assessed as growth inhibition at 10 uM after 48 hrs by coulter counter analysis; details: SW-620, 48 h, read-out: GI
KM12 = assay: Cytotoxicity against human KM12 cells assessed as growth inhibition at 10 uM after 48 hrs by coulter counter analysis; details: KM12, 48 h, read-out: GI
HT-29 = assay: Cytotoxicity against human HT-29 cells assessed as growth inhibition at 10 uM after 48 hrs by coulter counter analysis; details: HT-29, 48 h, read-out: GI
HCT-15 = assay: Cytotoxicity against human HCT15 cells assessed as growth inhibition at 10 uM after 48 hrs by coulter counter analysis; details: HCT-15, 48 h, read-out: GI
COLO 205 = assay: Cytotoxicity against human COLO205 cells assessed as growth inhibition at 10 uM after 48 hrs by coulter counter analysis; details: COLO 205, 48 h, read-out: GI

SMILES | inhibition of growth at 10 µM (NCI-H322M) | inhibition of growth at 10 µM (NCI-H226) | inhibition of growth at 10 µM [1] | inhibition of growth at 10 µM (A549) | inhibition of growth at 10 µM (MDA-MB-468) | inhibition of growth at 10 µM (T47D) | inhibition of growth at 10 µM (MCF7) | inhibition of growth at 10 µM (PC-3) | inhibition of growth at 10 µM (UO-31) | inhibition of growth at 10 µM (TK-10) | inhibition of growth at 10 µM (SN12C) | inhibition of growth at 10 µM (RXF 393) | inhibition of growth at 10 µM (CAKI-1) | inhibition of growth at 10 µM (A498) | inhibition of growth at 10 µM (SK-OV-3) | inhibition of growth at 10 µM (786-0) | inhibition of growth at 10 µM [2] | inhibition of growth at 10 µM (OVCAR-8) | inhibition of growth at 10 µM (OVCAR-5) | inhibition of growth at 10 µM (OVCAR-4) | other results
CCOC(=O)c1ccc(NC(=O)CSc2nc3ccccc3c(=O)n2CCc2ccccc2)cc1 | 23% | 25% | 34% | 27% | 18% | 17% | 12% | 10% | 10% | < 10% | < 10% | 14% | 19% | < 10% | 19% | < 10% | 19% | 37% | 15% | 10% | inhibition of growth at 10 µM (IGROV-1): 31%; inhibition of growth at 10 µM (UACC-62): 29%; inhibition of growth at 10 µM (UACC-257): 29%; inhibition of growth at 10 µM (SK-MEL-28): 14%; inhibition of growth at 10 µM (MDA-MB-435): 16%; inhibition of growth at 10 µM (M14): 21%; inhibition of growth at 10 µM (Malme-3M): 23%; inhibition of growth at 10 µM (LOX IMVI): 22%; inhibition of growth at 10 µM (U-251): 28%; inhibition of growth at 10 µM (SNB-75): 39%; inhibition of growth at 10 µM (SNB-19): 36%; inhibition of growth at 10 µM (SF-295): 25%; inhibition of growth at 10 µM (SF-268): 33%; inhibition of growth at 10 µM (SW-620): 11%; inhibition of growth at 10 µM (KM12): 11%; inhibition of growth at 10 µM (HT-29): 12%; inhibition of growth at 10 µM (HCT-15): < 10%; inhibition of growth at 10 µM (COLO 205): 22%
O=C(CSc1nc2ccccc2c(=O)n1CCc1ccccc1)Nc1ccc(Cl)cc1 | 13% | 24% | 29% | 16% | 36% | 56% | 30% | 30% | 28% | 19% | 13% | 22% | 42% | < 10% | 43% | 13% | 21% | 39% | < 10% | 14% | inhibition of growth at 10 µM (IGROV-1): 36%; inhibition of growth at 10 µM (UACC-62): 34%; inhibition of growth at 10 µM (UACC-257): 18%; inhibition of growth at 10 µM (SK-MEL-28): 10%; inhibition of growth at 10 µM (MDA-MB-435): 13%; inhibition of growth at 10 µM (M14): < 10%; inhibition of growth at 10 µM (Malme-3M): < 10%; inhibition of growth at 10 µM (LOX IMVI): 23%; inhibition of growth at 10 µM (U-251): 25%; inhibition of growth at 10 µM (SNB-75): 63%; inhibition of growth at 10 µM (SNB-19): 30%; inhibition of growth at 10 µM (SF-295): 32%; inhibition of growth at 10 µM (SF-268): 40%; inhibition of growth at 10 µM (SW-620): 11%; inhibition of growth at 10 µM (KM12): 14%; inhibition of growth at 10 µM (HT-29): < 10%; inhibition of growth at 10 µM (HCT-15): 16%; inhibition of growth at 10 µM (COLO 205): 15%
O=C(CSc1nc2ccccc2c(=O)n1CCc1ccccc1)Nc1ccc(F)cc1 | 17% | < 10% | 24% | 23% | 23% | 25% | 18% | 16% | 31% | < 10% | 19% | 13% | 22% | 10% | 25% | < 10% | < 10% | < 10% | < 10% | < 10% | inhibition of growth at 10 µM (IGROV-1): 16%; inhibition of growth at 10 µM (UACC-62): 25%; inhibition of growth at 10 µM (UACC-257): < 10%; inhibition of growth at 10 µM (SK-MEL-28): < 10%; inhibition of growth at 10 µM (MDA-MB-435): < 10%; inhibition of growth at 10 µM (M14): 18%; inhibition of growth at 10 µM (Malme-3M): 11%; inhibition of growth at 10 µM (LOX IMVI): 18%; inhibition of growth at 10 µM (U-251): 17%; inhibition of growth at 10 µM (SNB-75): < 10%; inhibition of growth at 10 µM (SNB-19): < 10%; inhibition of growth at 10 µM (SF-295): 13%; inhibition of growth at 10 µM (SF-268): < 10%; inhibition of growth at 10 µM (SW-620): < 10%; inhibition of growth at 10 µM (KM12): < 10%; inhibition of growth at 10 µM (HT-29): 10%; inhibition of growth at 10 µM (HCT-15): 10%; inhibition of growth at 10 µM (COLO 205): < 10%
